Test results as given in patent US10450311B2, “Pesticidally active heterocyclic derivatives with sulphur containing substituents” (Syngenta Participations AG, priority 2014, dated 2019).

Tests used:
Assay type in all cases: in vivo
[1] = tested on: Bemisia tabaci (Cotton White Fly); assay: Activity against Bemisia tabaci, sprayed cotton leaf discs; conditions: foliar, 144 h, application rate of 200 ppm, adult white flies on cotton leaf discs, 6 days after incubation
Procedure: Example B1: Activity Against Bemisia tabaci (Cotton White Fly)
Cotton leaf discs were placed on agar in 24-well microtiter plates and sprayed with aqueous test solutions prepared from 10′000 ppm DMSO stock solutions. After drying the leaf discs were infested with adult white flies. The samples were checked for mortality 6 days after incubation. […] A35, A36 and A47. A1. A2, A3, A8, A10, A14 and A12.

[2] = tested on: Diabrotica balteata (Corn Root Worm); assay: Activity against Diabrotica balteata, sprayed maize sprouts; conditions: 96 h, application rate of 200 ppm, larvae on maize sprouts, 4 days after infestation
Procedure: Example B2: Activity Against Diabrotica balteata (Corn Root Worm)
Maize sprouts, placed on an agar layer in 24-well microtiter plates were treated with aqueous test solutions prepared from 10′000 ppm DMSO stock solutions by spraying. After drying, the plates were infested with […] (6 to 10 per well). The samples were assessed for mortality 4 days after infestation.

[3] = tested on: Euschistus heros (Neotropical Brown Stink Bug); assay: Activity against Euschistus heros, sprayed soybean leaf; conditions: 120 h, application rate of 200 ppm, N-2 nymphs on soybean leaf, 5 days after infestation
Procedure: Example B3: Activity Against Euschistus heros (Neotropical Brown Stink Bug)
Soybean leaf on agar in 24-well microtiter plates were sprayed with aqueous test solutions prepared from 10′000 ppm DMSO stock solutions. After drying the leaf were infested with N-2 nymphs. The samples were assessed for mortality 5 days after infestation.

[4] = tested on: Myzus persicae (Green Peach Aphid); assay: Activity against Myzus persicae, sprayed sunflower leaf discs; conditions: foliar, 144 h, application rate of 200 ppm, aphid population of mixed ages on sunflower leaf discs, 6 days after infestation
Procedure: Example B5: Activity Against Myzus persicae (Green Peach Aphid)
(§1) Sunflower leaf discs were placed on agar in a 24-well microtiter plate and sprayed with aqueous test solutions prepared from 10′000 ppm DMSO stock solutions. After drying, the leaf discs were infested with an aphid population of mixed ages. The samples were assessed for mortality 6 days after infestation.

[5] = tested on: Plutella xylostella (Diamond Back Moth); assay: Activity against Plutella xylostella, treated artificial diet; conditions: 120 h, application rate of 200 ppm, L2 larvae on artificial diet, 5 days after infestation, read-out: effect in at least one of the two categories (mortality or growth inhibition)
Procedure: Example B8: Activity Against Plutella xylostella (Diamond Back Moth)
24-well microtiter plates with artificial diet were treated with aqueous test solutions prepared from 10′000 ppm DMSO stock solutions by pipetting. After drying, the plates were infested with L2 larvae (10 to 15 per well). The samples were assessed for mortality and growth inhibition in comparison to untreated samples 5 days after infestation.

[6] = tested on: Spodoptera littoralis (Egyptian Cotton Leaf Worm); assay: Activity against Spodoptera littoralis, sprayed cotton leaf discs; conditions: foliar, 72 h, application rate of 200 ppm, L1 larvae on cotton leaf discs, 3 days after infestation, read-out: control (at least one of mortality, anti-feedant effect, growth inhibition)
Procedure: Example B9: Activity Against Spodoptera littoralis (Egyptian Cotton Leaf Worm)
Cotton leaf discs were placed on agar in 24-well microtiter plates and sprayed with aqueous test solutions prepared from 10′000 ppm DMSO stock solutions. After drying the leaf discs were infested with five L1 larvae. The samples were assessed for mortality, anti-feedant effect, and growth inhibition in comparison to untreated samples 3 days after infestation. Control of Spodoptera littoralis by a test sample is when at least one of mortality, anti-feedant effect, and growth inhibition is higher than the untreated sample.

[7] = tested on: Aedes aegypti (Yellow Fever Mosquito); assay: whole plant or invertebrate; conditions: 48 h, test rate of 5 ppm, L2 larvae in 96-well plates, incubation period of 2 days, read-out: effect in at least one of the two categories (mortality or growth inhibition)
Procedure: Example B14: Activity Against Aedes aegypti (Yellow Fever Mosquito)
10 to 15 Aedes larvae (L2) together with a nutrition mixture were placed in 96-well microtiter plates. Test compounds were pipetted into the wells. After an incubation period of 2 days insects were assessed for mortality and growth inhibition.

[8] = tested on: Myzus persicae (Green Peach Aphid); assay: Activity against Myzus persicae, sucrose solution under Parafilm; conditions: 120 h, test rate of 12 ppm, mixed with sucrose solution, 5 days after infestation
Source text: Example B7: Activity Against Myzus persicae (Green Peach Aphid)
Test compounds from 10′000 ppm DMSO stock solutions were applied by pipette into 24-well microtiter plates and mixed with sucrose solution. The plates were closed with a stretched Parafilm. A plastic stencil with 24 holes was placed onto the plate and infested pea seedlings were placed directly on the Parafilm. The infested plate was closed with a gel blotting paper and another plastic stencil and then turned upside down. The samples were assessed for mortality 5 days after infestation. […] A30 and A32.

[9] = tested on: Frankliniella occidentalis (Western Flower Thrips); assay: Activity against Frankliniella occidentalis, sprayed sunflower leaf discs; conditions: foliar, 168 h, application rate of 200 ppm, population of mixed ages on sunflower leaf discs, 7 days after infestation
Procedure: Example B4: Activity Against Frankliniella occidentalis (Western Flower Thrips)
as §1, with “in” for “in a”, “plates” for “plate”, “[…]” for “10′000 ppm”, “drying” for “drying,”, “a Frankliniella” for “an aphid”, “7” for “6”

[10] = tested on: Myzus persicae (Green Peach Aphid); assay: Activity against Myzus persicae, roots of infested pea seedlings in test solution; conditions: 144 h, test rate of 24 ppm, 6 days
Procedure: Example B6: Activity Against Myzus persicae (Green Peach Aphid)
Roots of pea seedlings infested with an aphid population of mixed ages were placed directly in the aqueous test solutions prepared from 10′000 DMSO stock solutions. The samples were assessed for mortality 6 days after placing seedlings in test solutions.

[11] = tested on: Spodoptera littoralis (Egyptian Cotton Leaf Worm); assay: Activity against Spodoptera littoralis, systemic activity; conditions: 144 h, test rate of 12.5 ppm, in agar, lettuce root uptake, 6 days after infestation
Source text: Example B11: Activity Against Spodoptera littoralis (Egyptian Cotton Leaf Worm), Systemic Activity
(§2) Test compounds were applied by pipette from 10′000 ppm DMSO stock solutions into 24-well plates and mixed with agar. Lettuce seeds were placed on the agar and the multi well plate was closed by another plate which contains also agar. After 7 days the roots have absorbed the compound and the lettuce has grown into the lid plate. The lettuce leafs were now cut off into the lid plate. Spodoptera eggs were pipetted through a plastic stencil on a humid gel blotting paper and the plate closed with it. The samples were assessed for mortality 6 days after infestation.

[12] = tested on: Spodoptera littoralis (Egyptian Cotton Leaf Worm); assay: Activity against Spodoptera littoralis, compound in agar taken up by lettuce; conditions: 144 h, test rate of 12.5 ppm, lettuce root uptake, 6 days after infestation, read-out: effect in at least one of the three categories (mortality, anti-feedancy, or growth inhibition)
Source text: Example B10: Activity Against Spodoptera littoralis (Egyptian Cotton Leaf Worm)
as §2, with “mortality, anti-feedant effect and growth inhibition in comparison to untreated samples” for “mortality”

[13] = tested on: Thrips tabaci (Onion Thrips); assay: Activity against Thrips tabaci, feeding/contact activity; conditions: foliar, 144 h, application rate of 200 ppm, thrips population of mixed ages on sunflower leaf discs, 6 days after infestation
Procedure: Example B13: Activity Against Thrips tabaci (Onion Thrips) Feeding/Contact Activity
as §1, with “in” for “in a”, “plates” for “plate”, “drying” for “drying,”, “a thrips” for “an aphid”

CCn1c(C(F)(F)F)cc2nc(-c3ncc(C(F)(F)F)cc3S(=O)(=O)CC)n(C)c2c1=O [Compound A2]
≥ 80%: mortality at 200 ppm [1] | mortality at 200 ppm [2] | mortality at 200 ppm [3] | mortality at 200 ppm [4] | percent effect (mortality or growth inhibition) at 200 ppm [5] | percent control (mortality, anti-feedant effect or growth inhibition) at 200 ppm [6] | percent effect (mortality or growth inhibition) at 5 ppm [7]

CCS(=O)(=O)c1cc(C(F)(F)F)cnc1-c1nc2cc(C(F)(F)F)n(Cc3ccccc3)c(=O)c2n1C [Compound A4, 5-benzyl-2-[3-ethylsulfonyl-5-(trifluoromethyl)-2-pyridyl]-3-methyl-6-(trifluoromethyl)imidazo[4,5-c]pyridin-4-one]
≥ 80%: mortality at 200 ppm [2] | mortality at 12 ppm [8] | percent effect (mortality or growth inhibition) at 200 ppm [5] | percent control (mortality, anti-feedant effect or growth inhibition) at 200 ppm [6]

CCS(=O)(=O)c1cc(C2CC2)cnc1-c1nc2cc(C(F)(F)F)n(C)c(=O)c2n1C [Compound A23]
≥ 80%: mortality at 200 ppm [2] | mortality at 200 ppm [3] | mortality at 200 ppm [9] | mortality at 200 ppm [4] | mortality at 24 ppm [10] | percent effect (mortality or growth inhibition) at 200 ppm [5] | percent control (mortality, anti-feedant effect or growth inhibition) at 200 ppm [6] | mortality at 12.5 ppm [11] | percent effect (mortality or growth inhibition) at 5 ppm [7]

CCn1c(C(F)(F)F)cc2nc(-c3ncc(Br)cc3S(=O)(=O)CC)n(C)c2c1=O [Compound A31, 2-(5-bromo-3-ethylsulfonyl-2-pyridyl)-5-ethyl-3-methyl-6-(trifluoromethyl)imidazo[4,5-c]pyridin-4-one]
≥ 80%: mortality at 200 ppm [1] | mortality at 200 ppm [2] | mortality at 200 ppm [3] | mortality at 200 ppm [4] | percent effect (mortality or growth inhibition) at 200 ppm [5] | percent control (mortality, anti-feedant effect or growth inhibition) at 200 ppm [6] | percent control (mortality, anti-feedancy or growth inhibition) at 12.5 ppm [12] | mortality at 12.5 ppm [11] | percent effect (mortality or growth inhibition) at 5 ppm [7]

CCn1c(C(F)(F)F)cc2nc(-c3ncc(-c4ccc(C(F)(F)F)cc4)cc3S(=O)(=O)CC)n(C)c2c1=O [Compound A35, 5-ethyl-2-[3-ethylsulfonyl-5-[4-(trifluoromethyl)phenyl]-2-pyridyl]-3-methyl-6-(trifluoromethyl)imidazo[4,5-c]pyridin-4-one]
≥ 80%: mortality at 200 ppm [1] | mortality at 200 ppm [2] | mortality at 200 ppm [3] | mortality at 200 ppm [4] | percent effect (mortality or growth inhibition) at 200 ppm [5] | percent control (mortality, anti-feedant effect or growth inhibition) at 200 ppm [6] | mortality at 12.5 ppm [11]

CCS(=O)(=O)c1cc(C(F)(F)C(F)(F)F)cnc1-c1nc2cc(C(F)(F)F)n(C)c(=O)c2n1C [Compound A46, 2-[3-ethylsulfonyl-5-(1,1,2,2,2-pentafluoroethyl)-2-pyridyl]-3,5-dimethyl-6-(trifluoromethyl)imidazo[4,5-c]pyridin-4-one]
≥ 80%: mortality at 200 ppm [2] | mortality at 200 ppm [3] | mortality at 200 ppm [9] | mortality at 200 ppm [4] | percent effect (mortality or growth inhibition) at 200 ppm [5] | percent control (mortality, anti-feedant effect or growth inhibition) at 200 ppm [6] | percent control (mortality, anti-feedancy or growth inhibition) at 12.5 ppm [12] | mortality at 12.5 ppm [11] | mortality at 200 ppm [13] | percent effect (mortality or growth inhibition) at 5 ppm [7]

CCS(=O)(=O)c1cc(C(F)(F)F)ccc1-c1nc2cc(C(F)(F)F)n(C)c(=O)c2n1C [Compound A73, 2-[2-ethylsulfonyl-4-(trifluoromethyl)phenyl]-3,5-dimethyl-6-(trifluoromethyl)imidazo[4,5-c]pyridin-4-one]
≥ 80%: mortality at 200 ppm [2] | mortality at 200 ppm [3] | mortality at 200 ppm [4] | mortality at 24 ppm [10] | percent effect (mortality or growth inhibition) at 200 ppm [5] | percent control (mortality, anti-feedant effect or growth inhibition) at 200 ppm [6] | percent control (mortality, anti-feedancy or growth inhibition) at 12.5 ppm [12] | mortality at 12.5 ppm [11] | percent effect (mortality or growth inhibition) at 5 ppm [7]

CCSc1cc(C(F)(F)F)cnc1-c1nc2cc(C(F)(F)F)c(=O)n(C)c2n1C [Compound B1, 2-[3-ethylsulfanyl-5-(trifluoromethyl)-2-pyridyl]-3,4-dimethyl-6-(trifluoromethyl)imidazo[4,5-b]pyridin-5-one]
≥ 80%: mortality at 200 ppm [4] | mortality at 12 ppm [8]

CCS(=O)(=O)c1cc(C(F)(F)F)cnc1-c1nc2cc(C(F)(F)F)c(=O)n(C)c2n1C [Compound B2, 2-[3-ethylsulfonyl-5-(trifluoromethyl)-2-pyridyl]-3,4-dimethyl-6-(trifluoromethyl)imidazo[4,5-b]pyridin-5-one]
≥ 80%: mortality at 200 ppm [1] | mortality at 200 ppm [2] | mortality at 200 ppm [3] | mortality at 200 ppm [4] | mortality at 24 ppm [10] | mortality at 12 ppm [8]
